Measured values as given in US10040779B2, “Histone demethylase inhibitors” (priority 2012, dated 2018).

Tested on: KDM5A and KDM5B
Test: In vitro cell-based assay: tri-methyl H3K4 immuno-blotting in ZR-75-1 breast cancer cells
Conditions: 72 hr, read-out: Cellular IC50
Experimental: This quantitative immuno-blotting assay measures the amount tri-methylated histone H3 at amino acid Lysine number 4, a specific substrate […] of the direct enzymatic activity of the histone demethylases KDM5A and KDM5B from extracts of the ZR-75-1 breast cancer cell line.
This assay is a fluorometric immunoassay for the quantification of tri-methyl H3K4 extracted from cells treated with test compound and is used as a measure of the cellular inhibition of KDM5A/B.
Extracts were prepared containing all of the cellular histone material using detergent based lysis and sonication methods. These lysates were subsequently normalized for total protein content using a colorimetric bicinchonic acid assay (MicroBCA Pierce/Thermo Scientific). Normalized cell extracts were then subjected to typical immuno-blotting procedures using NuPage reagents (Life Technologies). […] The amount of tri-methylated lysine 4 of histone H3 was detected using an antibody specific to the tri-methylated state (Cell Signaling Technologies) and quantified on an infrared imager using a densitometry software package (Odyssey CLx, Image Studio, Li-Cor). This background subtracted densitometry value was reported as a ration of the GAPDH amount for that sample and then calculated as a percent of the DMSO treated sample.

O=C(O)c1ccncc1Nc1cn(C2CCOC2)c2ccc(F)cc12 (stereo not shown) [Example 68, 3-{[5-fluoro-1-(tetrahydrofuran-3-yl)-1H-indol-3-yl]amino}pyridine-4-carboxylic acid]
IC50: 1 to 10 µM
